Patent US20240376056A1, “PHENYL ACETAMIDE BASED IL-17A MODULATORS AND USES THEREOF” (DiCE Alpha, Inc., priority 2021, published 2024)

Target: T1, IL-17A/A (Homo sapiens, UniProt Q16552)
T1 construct: purchased Genscript Z03228
T1 sequence (Q16552 24-155): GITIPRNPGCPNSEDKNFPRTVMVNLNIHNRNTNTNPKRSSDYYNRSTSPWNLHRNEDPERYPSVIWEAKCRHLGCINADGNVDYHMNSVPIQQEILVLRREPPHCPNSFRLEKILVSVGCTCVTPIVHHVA
Assay: HEK-Blue IL-17A/A inhibition assay (SEAP reporter)
Type: cell-based
Settings: HEK-Blue cells (HEK 293 expressing IL-17RA, IL-17RC, Act1); IL-17A/A stimulation; 20 hours; SEAP read at A630; 4-parameter fit
How it was run: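 IC50 from a 4-parameter fit of SEAP signal (Quanti-Blue, A630) after 20 h co-incubation of compound and IL-17A/A. Reporter line: HEK 293 expressing IL-17RA, IL-17RC and Act1 with NFκB-SEAP; compound top final 10, 1 or 0.3 uM, DMSO 0.1% final.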

Row | IC50 | Compound
1 | 0.1 to 1 µM | CC(C)n1nccc1C(=O)N[C@H](C(=O)Nc1ccc([C@H](C)C(=O)N2C[C@H](F)[C@@H](F)C2)cc1F)C(C1CC1)C1CC1 [Compound 38, N-((S)-1,1-dicyclopropyl-3-((4-((S)-1-((3S,4S)-3,4-difluoropyrrolidin-1-yl)-1-oxopropan-2-yl)-2-fluorophenyl)amino)-3-oxopropan-2-yl)-1-isopropyl-1H-pyrazole-5-carboxamide]
2 | 0.1 to 1 µM | CC(C)n1nccc1C(=O)N[C@H](C(=O)Nc1ccc([C@H](C)C(=O)NC2CNCC2(F)F)cc1F)C(C1CC1)C1CC1 (single isomer, unassigned) [Compound 134]
3 | > 1 µM | CC(C)n1nccc1C(=O)N[C@H](C(=O)Nc1ccc([C@H](C)C(=O)N2C[C@@H](O)[C@@H](F)C2)cc1F)C(C1CC1)C1CC1 [Compound 31, N-((S)-1.1-dicyclopropyl-3-((2-fluoro-4-((S)-1-((3S,4R)-3-fluoro-4-hydroxypyrrolidin-1-yl)-1-oxopropan-2-yl)phenyl)amino)-3-oxopropan-2-yl)-1-isopropyl-1H-pyrazole-5-carboxamide]
4 | > 1 µM | CC(C(=O)NCC(F)(F)F)c1cc(F)c(NC(=O)[C@@H](NC(=O)c2ccnn2C(C)C)C(C2CC2)C2CC2)cc1N(C)C (stereo partly drawn) [Compound 214]
5 | 0.1 to 1 µM | [2H]C([2H])([2H])N(CC(F)(F)F)C(=O)[C@@H](C)c1ccc(NC(=O)[C@@H](NC(=O)c2ccnn2C(C)C)C(C2CC2)C2CC2)c(F)c1 [Compound 23, N-((S)-1,1-dicyclopropyl-3-((2-fluoro-4-((S)-1-((methyl-d3)(2,2,2-trifluoroethyl)amino)-1-oxopropan-2-yl)phenyl)amino)-3-oxopropan-2-yl)-1-isopropyl-1H-pyrazole-5-carboxamide]
6 | > 1 µM | CC(C)n1nccc1C(=O)N[C@H](C(=O)Nc1ccc(C(C(=O)NCC(F)(F)F)N2CCOCC2)cc1F)C(C1CC1)C1CC1 (single isomer, unassigned) [Compound 141]
7 | > 1 µM | CC(C(=O)NCC(F)(F)F)c1cc(F)c(NC(=O)[C@@H](NC(=O)c2ccnn2C(C)C)C(C2CC2)C2CC2)cc1C(F)(F)F (single isomer, unassigned) [Compound 121]
8 | 0.1 to 1 µM | Cc1cc(NC(=O)[C@@H](NC(=O)c2ccnn2C(C)C)C(C2CC2)C2CC2)c(F)cc1C(C)C(=O)N1CC(O)CC1C(F)(F)F (single isomer, unassigned) [Compound 200]
9 | 0.1 to 1 µM | CC(C)n1nccc1C(=O)N[C@H](C(=O)Nc1ccc([C@H](C)C(=O)N2CCN(CC(F)(F)F)CC2)cc1F)C(C1CC1)C1CC1 [Compound 24, N-((S)-1.1-dicyclopropyl-3-((2-fluoro-4-((S)-1-oxo-1-(4-(2,2,2-trifluoroethyl)piperazin-1-yl)propan-2-yl)phenyl)amino)-3-oxopropan-2-yl)-1-isopropyl-1H-pyrazole-5-carboxamide]
10 | < 0.1 µM | CCn1nccc1C(=O)N[C@H](C(=O)Nc1ccc([C@H](C)C(=O)N(C)CC(F)(F)F)cc1F)C1CCCCCC1 (single isomer, unassigned) [Compound 4]
11 | > 1 µM | Cc1cc(NC(=O)[C@@H](NC(=O)c2nonc2C)C2CCC(F)(F)CC2)c(F)cc1C(C)C(=O)NCC(F)(F)F (stereo partly drawn) [Compound 197]
12 | 0.1 to 1 µM | CC(C)n1nccc1C(=O)N[C@H](C(=O)Nc1ccc([C@H](C)C(=O)N(CC(F)(F)F)CC(F)(F)F)cc1F)C(C1CC1)C1CC1 [Compound 42, N-((S)-1-((4-((S)-1-(bis(2,2,2-trifluoroethyl)amino)-1-oxopropan-2-yl)-2-fluorophenyl)amino)-3,3-dicyclopropyl-1-oxopropan-2-yl)-1-isopropyl-1H-pyrazole-5-carboxamide]
13 | > 1 µM | CCn1nccc1C(=O)N[C@H](C(=O)Nc1ccc([C@H](C)C(=O)N(C)CC(F)(F)F)cc1F)[C@H](c1ccccc1Cl)C(C)C [Compound 73, N-((2S,3S)-3-(2-chlorophenyl)-1-((2-fluoro-4-((S)-1-(methyl(2,2,2-trifluoroethyl)amino)-1-oxopropan-2-yl)phenyl)amino)-4-methyl-1-oxopentan-2-yl)-1-ethyl-1H-pyrazole-5-carboxamide]
14 | 0.1 to 1 µM | CC(C)n1nccc1C(=O)N[C@H](C(=O)Nc1ccc([C@H](C)C(=O)N2CCOC2C(F)(F)F)cc1F)C(C1CC1)C1CC1 (single isomer, unassigned) [Compound 48]
15 | < 0.1 µM | CCOc1cc(NC(=O)[C@@H](NC(=O)c2ccnn2C(C)C)C(C2CC2)C2CC2)c(F)cc1C(C)C(=O)N(C)CC(F)(F)F (stereo partly drawn) [Compound 195]
16 | > 1 µM | CC(C(=O)NCC(F)(F)F)c1cc(F)c(NC(=O)[C@@H](NC(=O)c2ccnn2C(C)C)C2CCC(F)(F)CC2)cc1OC(F)(F)F (single isomer, unassigned) [Compound 220]
17 | 0.1 to 1 µM | CC(C)n1nccc1C(=O)N[C@H](C(=O)Nc1ccc([C@H](C)C(=O)N(CC(F)(F)F)C2CCOC2)cc1F)C(C1CC1)C1CC1 (stereo partly drawn) [Compound 153]

Row | IC50 | Compound
18 | > 1 µM | COc1cc(NC(=O)[C@@H](NC(=O)c2ccnn2C(C)C)C(C2CC2)C2CC2)c(F)cc1C(C)C(=O)NCC(F)(F)F (single isomer, unassigned) [Compound 122]
19 | 0.1 to 1 µM | CCn1nccc1C(=O)N[C@H](C(=O)Nc1ccc([C@@H](C)C(=O)N(C)CC(F)(F)F)cc1F)C1CCCCCC1 (single isomer, unassigned) [Compound 3]
20 | < 0.1 µM | CC(C(=O)N1CCC(C(N)=O)C1C(F)(F)F)c1cc(F)c(NC(=O)[C@@H](NC(=O)c2ccnn2C(C)C)C(C2CC2)C2CC2)cc1C(F)(F)F (stereo partly drawn) [Compound 250]
21 | 0.1 to 1 µM | COc1cc(NC(=O)[C@@H](NC(=O)c2ccnn2C(C)C)C(C2CC2)C2CC2)c(F)cc1C(C)C(=O)N1CC(O)CC1C(F)(F)F (single isomer, unassigned) [Compound 213]
22 | > 1 µM | CC(C)n1nccc1C(=O)N[C@H](C(=O)Nc1ccc([C@H](C)C(=O)N2C[C@@H](F)C[C@@H]2C(F)(F)F)cc1F)C(C1CC1)C1CC1 [Compound 59, N-((S)-1,1-dicyclopropyl-3-((2-fluoro-4-((S)-1-((2R^4S)-4-fluoro-2-(trifluoromethyl)pyrrolidin-1-yl)-1-oxopropan-2-yl)phenyl)amino)-3-oxopropan-2-yl)-1-isopropyl-1H-pyrazole-5-carboxamide]
23 | > 1 µM | CC(C)n1nccc1C(=O)N[C@H](C(=O)Nc1ccc([C@H](C)C(=O)NCC(F)(F)CO)cc1F)C(C1CC1)C1CC1 [Compound 65, N-((S)-1,1-dicyclopropyl-3-((4-((S)-1-((2,2-difluoro-3-hydroxypropyl)amino)-1-oxopropan-2-yl)-2-fluorophenyl)amino)-3-oxopropan-2-yl)-1-isopropyl-1H-pyrazole-5-carboxamide]
24 | > 1 µM | Cc1cc(NC(=O)[C@@H](NC(=O)c2ccnn2C)C2CCC(F)(F)CC2)c(F)cc1C(C)C(=O)NCC(F)(F)F (stereo partly drawn) [Compound 215]
25 | > 1 µM | CC(C(=O)NCC(F)(F)F)c1cc(F)c(NC(=O)[C@@H](NC(=O)c2ccnn2C(C)C)C(C2CC2)C2CC2)cc1N1CCOCC1 (stereo partly drawn) [Compound 232]
26 | > 1 µM | CC(C)n1nccc1C(=O)N[C@H](C(=O)Nc1ccc([C@H](C)C(=O)NC2CNCC2(F)F)cc1F)C(C1CC1)C1CC1 (single isomer, unassigned) [Compound 133]
27 | 0.1 to 1 µM | C[C@H](C(=O)NCC(F)(F)F)c1ccc(NC(=O)[C@@H](NC(=O)c2ccnn2CCN2CC(F)(F)C2)C(C2CC2)C2CC2)c(F)c1 [Compound 94, N-((S)-1.1-dicyclopropyl-3-((2-fluoro-4-((S)-1-oxo-1-((2,2,2-trifluoroethyl)amino)propan-2-yl)phenyl)amino)-3-oxopropan-2-yl)-1-(2-(3,3-difluoroazetidin-1-yl)ethyl)-1H-pyrazole-5-carboxamide]
28 | < 0.1 µM | C=Cc1cc(NC(=O)[C@@H](NC(=O)c2ccnn2C(C)C)C(C2CC2)C2CC2)c(F)cc1C(C)C(=O)NCC(F)(F)F (mixture of isomers) [Compound 110, N-((2S)-1,1-dicyclopropyl-3-((2-fluoro-4-(1-oxo-1-((2,2,2-trifluoroethyl)amino)propan-2-yl)-5-vinylphenyl)amino)-3-oxopropan-2-yl)-1-isopropyl-1H-pyrazole-5-carboxamide]
29 | > 1 µM | CC(C(=O)NCC(F)(F)F)c1cc(F)c(NC(=O)[C@@H](NC(=O)c2ccnn2C(C)C)C(C2CC2)C2CC2)cc1C(N)=O (single isomer, unassigned) [Compound 116]
30 | 0.1 to 1 µM | CC(C)n1nccc1C(=O)N[C@H](C(=O)Nc1ccc([C@H](C)C(=O)N(CCN)CC(F)(F)F)cc1F)C(C1CC1)C1CC1 [Compound 139, N-((S)-1-((4-((S)-1-((2-aminoethyl)(2,2,2-trifluoroethyl)amino)-1-oxopropan-2-yl)-2-fluorophenyl)amino)-3,3-dicyclopropyl-1-oxopropan-2-yl)-1-isopropyl-1H-pyrazole-5-carboxamide]
31 | 0.1 to 1 µM | CC(C)n1nccc1C(=O)N[C@H](C(=O)Nc1ccc([C@H](C)C(=O)N2CC[C@H]2C(F)(F)F)cc1F)C(C1CC1)C1CC1 [Compound 64, N-((S)-1,1-dicyclopropyl-3-((2-fluoro-4-((S)-1-oxo-1-((S)-2-(trifluoromethyl)azetidin-1-yl)propan-2-yl)phenyl)amino)-3-oxopropan-2-yl)-1-isopropyl-1H-pyrazole-5-carboxamide]
32 | 0.1 to 1 µM | CC(C(=O)N1CC(C#N)CCC1C(F)(F)F)c1ccc(NC(=O)[C@@H](NC(=O)c2ccnn2C(C)C)C(C2CC2)C2CC2)c(F)c1 (stereo partly drawn) [Compound 204]
33 | 0.1 to 1 µM | CC(C(=O)NCC(F)(F)F)c1cc(F)c(NC(=O)[C@@H](NC(=O)c2ccnn2C(C)C)C(C2CC2)C2CC2)cc1NC(F)(F)F (single isomer, unassigned) [Compound 186]
